# Source: ChEMBL document CHEMBL3813647, “Discovery of an Orally Active and Liver-Targeted Prodrug of 5-Fluoro-2'-Deoxyuridine for the Treatment of Hepatocellular Carcinoma” (J Med Chem, 2016)
# Assays:
# Liver = assay: Drug uptake in Sprague-Dawley rat liver treated with (S)-Isopropyl 2-(((R)-(((2R,3S,5R)-5-(5-fluoro-2,4-dioxo-3,4-dihydropyrimidin-1(2H)-yl)-3-hydroxytetrahydrofuran-2-yl)methoxy)((2-methylbenzyl)oxy)phosphoryl)amino)propanoate; format: ADME, tissue-based; details: in vivo
# Plasma = assay: Drug uptake in Sprague-Dawley rat plasma treated with (S)-Isopropyl 2-(((R)-(((2R,3S,5R)-5-(5-fluoro-2,4-dioxo-3,4-dihydropyrimidin-1(2H)-yl)-3-hydroxytetrahydrofuran-2-yl)methoxy)((2-methylbenzyl)oxy)phosphoryl)amino)propanoate; format: ADME, cell-free
smiles,measurement,setting,value
Cc1ccccc1C(=O)NCC(=O)O,Drug uptake,Liver,metabolite_detected
same,Drug uptake,Plasma,metabolite_detected
